This note sets out measurements from article PMC12957798, “Adaptation of plateau frog peptide: From antimicrobial to angiogenic and proliferative functions” (Journal of Advanced Research, 2025).

In one test the test system is A. baumannil ATCC1968. The experiment in a line: Broth microdilution MIC, A. baumannii. The test is classed as cell-based, Acinetobacter baumannii. Conditions: positive control, 37 °C, 24 h, OD600. The method, then:
(§1) Disk diffusion and broth microdilution tests were selected as the standard method for screening the antimicrobial activity of SC17-2 [58]. The experiments were conducted utilising the disk diffusion test, whereby the following strains were examined: Acinetobacter baumannii (ATCC 19606), Candida auris (ATCC 10231), Pseudomonas aeruginosa (ATCC 27853) and Staphylococcus aureus (ATCC 6538). The concentration of bacterial suspension was then adjusted to 1 × 10^5 CFU/mL with saline, after which it was set aside. Separate plates containing bacterial agar were prepared: MH agar was utilised for the isolation of bacterial samples, while Sartorius agar was employed for the isolation of fungal samples. The suspensions containing the aforementioned microorganisms were then spread on the designated plates at a rate of 1:1000. A sterile filter paper was used to dispense 1 mL of SC17-2 (10 mg/mL), with equal amounts of PBS and Vancomycin/Colistin serving as controls. The plates were then subjected to the appropriate temperature (24 h at 37 °C) and subsequently observed under a camera to ascertain the results. […] At the conclusion of this period, the absorbance was measured using a Microplate Reader (Synergy H1, BioTek, USA) with a wavelength of 600 nm. […]

The test system of the next test is S. aureus ATCC6538. In words: Broth microdilution MIC, S. aureus. Further details: unit not given beside the values. The test is classed as cell-based, Staphylococcus aureus. Particulars: positive control, 37 °C, 24 h, OD600. The method, then:
as §1

The subject of test [1] is Escherichia coli ATCC2771. In words: Broth microdilution MIC, E. coli. The class given is cell-based. Details: unit not given beside the values. Conditions: positive control, 37 °C, 24 h, OD600. The method, then: as §1
For a further test, the system named is (p-Smad2/3)/(Smad2/3). The experiment in a line: Western blot p-Smad2/3 / Smad2/3 in HaCaT. The class given is cell-based, Human. Particulars: VEGF, n = 3. The method, then: (§2) HaCaT was inoculated in 12-well plates (2 × 10^5 cells/well) and cultured for 24 h. Afterwards, HaCaT cells were treated with equal amounts of VEGF, SC17-2, and PBS for 16 h. Cells were washed with PBS, after which the samples were collected and added to 1 mL of RIPA lysate containing protease inhibitors and phosphatase inhibitors and placed on ice for 30 min. Allowed to be after sufficient lysis, the supernatant was centrifuged and collected to determine the protein concentration using a nanodrop, followed by the addition of SDS sampling buffer and heating at 95 °C for 10 min. Samples were loaded and run on a gel block based on the determined sample concentration, and then electrotransferred onto a 0.45 μm PVDF membrane. […] After washing three times with TBST, proteins were visualised and scanned by enhanced chemiluminescence using the ChemiDoc XRS imaging system (Bio-Rad, Hercules, CA, USA).

The test system of a further test is BALB/c mice. In words: Mouse full-thickness skin wound healing. The class given is in vivo. Particulars: day 13, VEGF 20 ng/mL, 20 μL daily on wound, relative to day 1, mean ± SEM, n = 7. The method, then: Mice were anaesthetised with sodium pentobarbital 2 % by intraperitoneal injection (0.1 mL/20 g mouse body weight), and after anaesthesia, hair was removed from the back using depilatory cream and power scissors, and circular full-thickness skin wounds of the same diameter were marked and created on the back of each mouse using circular stamps and red sealant. The mouse wounds were then covered and infiltrated daily with 20 μL of different concentrations of SC17-2 or 20 ng/mL VEGF, and an equal volume of saline was used in the control group. The mice were anaesthetised by isoflurane nebulisation (concentration 2 %) every two days and then placed under an optical camera to photograph the effect of the wound area.
Sodium pentobarbital (2 %) was utilised for the anaesthetisation of mice by intraperitoneal injection (0.1 mL/20 g of mouse body weight). Subsequent to the induction of anaesthesia, the dorsal hair was removed using depilatory creams and electric scissors. Thereafter, circular full skin wounds of the same diameter were marked and created on the back of each mouse using circular stamps and red stencils. Mouse wounds were then covered and infiltrated daily with 20 μL of different concentrations of SC17-2 or 20 ng/mL of VEGF, and an equal volume of saline was used in the control group. Mice were anaesthetised every two days using isoflurane nebulisation followed by anaesthesia (concentration 2 %), after which they were placed under an optical camera to photograph the effect of wound area. After 13 days of treatment, mice were anaesthetised using isoflurane nebulisation followed by injection of an overdose of sodium pentobarbital to euthanise the mice (200 mg/kg). The wounds and their surrounding tissues were then excised for histopathological evaluation (Masson and H&E staining) and analysed by Enface immunofluorescence staining.

The next test deals with TGF-β. The experiment in a line: Western blot TGF-β in HaCaT. The class given is cell-based, Human. Conditions: VEGF, n = 3. On the procedure:
as §2

A further test relates to p-ERK/ERK. In words: Western blot p-ERK/ERK in HaCaT. The class given is cell-based, Human. Particulars: VEGF, n = 3. On the procedure:
as §2

With `CN[C@H](CC(C)C)C(=O)N[C@H]1C(=O)N[C@@H](CC(N)=O)C(=O)N[C@H]2C(=O)N[C@H]3C(=O)N[C@H](C(=O)N[C@H](C(=O)O)c4cc(O)cc(O)c4-c4cc3ccc4O)[C@H](O)c3ccc(c(Cl)c3)Oc3cc2cc(c3O[C@@H]2O[C@H](CO)[C@@H](O)[C@H](O)[C@H]2O[C@H]2C[C@](C)(N)[C@H](O)[C@H](C)O2)Oc2ccc(cc2Cl)[C@H]1O` [Vancomycin], the MIC with A. baumannil ATCC1968 was found to be 0.78.

Take Colistin: the MIC (with S. aureus ATCC6538; in test [1]) was 0.78 throughout.

As to VEGF, the Smad2/3 phosphorylation result with (p-Smad2/3)/(Smad2/3) is recorded as “significantly increased Smad2/3 phosphorylation”. Moreover, in the test with BALB/c mice, the wound area was found to be 7.04 ± 1.43%. Moreover, in the test with TGF-β, the “expression of TGF-β” value was “significantly increase the expression of TGF-β”. For the same compound, the ERK phosphorylation entry in the test on p-ERK/ERK is reported as “significantly increased ERK phosphorylation”.
